From US20250367283A1, “MEVALONATE PATHWAY INHIBITOR AS HIGHLY-EFFICIENT VACCINE ADJUVANT” (Tsinghua University, priority 2015, published 2025)
Where two headings read alike, the source gives them in different places.

Key:
[1] = target: humanized farnesyl pyrophosphate synthase (HsFPPS) (Homo sapiens (Human), UniProt P14324); test: In vitro HsFPPS enzyme activity assay; type: biochemical
Experimental: The measurement method is briefly described as follows: the expression of HsFPPS with 6 consecutive His at the N-terminus was induced in vitro, collected, and purified by Ni column. An in vitro HsFPPS enzyme activity assay was performed in a 96-well plate with 200 μl of solution per well. The buffer of the system was 25 mM HEPES, 2.5 mM MgCl2, pH 7.4. Using DMAPP and IPP as reaction substrates, the change of the UV value at a wavelength of 360 nm was monitored in real time in a phosphate lyase system. The ORIGIN 8.0 software was used to plot and fit. The IC50 values for the inhibition of FPPS by the TH-Z80 series of compounds were shown in the following table, in micromoles per liter (μM).
HsFPPs with 6 consecutive His at the N-terminus was induced to express in vitro, collected, and purified by Ni column. In vitro HsFPPs enzymatic activity assay was performed in a 96-well plate at 200 μl of solution per well. The buffer of the system was 25 mM HEPES, 2.5 mM MgCl2, pH 7.4. Using DMAPP and IPP as reaction substrates, the changes of UV at 360 nm were monitored in real-time in phosphate lyase system. ORIGIN 8.0 software was used to plot and fit.

[2] = system: Plasmodium falciparum 3D7; test: Test of plasmodium activity (SYBR-GREEN1); type: cell-based; conditions: infected erythrocytes, 72 hours; read-out: Malaria (IC50/μM)
Experimental: Plasmodium falciparum 3D7 was cultured with […] medium mixed with 10% human O-type blood serum and 25 mM HEPES. The cultivation process was maintained in a carbon dioxide incubator under 5% carbon dioxide. In vitro drug testing experiments were performed on a 96-well plate. The test drug was dissolved in PBS and pre-diluted with complete medium. Infected erythrocytes were cultured in triplicate for 72 hours in 3-fold serial dilutions of drug. Then an equal amount of SYBR-GREEN1 was added to each well. The detection was then performed at 485 nm for excitation light and 538 nm for emitted light. […] ORIGIN 8.0 software was used to plot and fit.

[3] = system: anti-OVA IgG; test: Comparison with existing adjuvants: IgG titer after boost; type: in vivo, mice; conditions: 100 μg adjuvant, intramuscular, 7th day after third immunization
[4] = system: anti-OVA IgG antibody affinity; test: Antibody affinity by sodium thiocyanate disruption; type: in vivo, mice; conditions: for antibody affinity vs PBS control: IC50 of sodium thiocyanate, after boost
Excerpt: Antibody affinity refers to the strength of an antibody to bind to the epitope of an antigen, which is a very important indicator when evaluating an antibody. It is due to gene mutations of antibody-forming cells themselves and selective activation of antigens for B cell clones. The functional state of the body is the result of long-term evolution and continuous adaptation to the external environment, which is of great significance to the defense of the body and the maintenance of autoimmune monitoring. In an in vitro test, the affinity of an antibody is determined by disrupting the antigen-antibody binding by sodium thiocyanate. The determination of antibody affinity is based on the fact that sodium thiocyanate can disrupt the binding of antigen and antibody, and the stronger the affinity of the antibody, the higher the concentration of sodium thiocyanate is required to dissociate the antigen and antibody. From another aspect if the affinity of the antibody is stronger, the effect of an adjuvant is better.
The OVA protein was diluted to a concentration of 2 μg/ml with a carbonate solution of pH 9.6, coated in a 96-well ELISA plate at 50 μl per well, and left at 4° C. overnight. The ELISA plate was washed five times with PBS containing 0.05% Tween 20, blocked with 1% BSA solution at 200 μl per well, and incubated at room temperature for 2 h. The ELISA plate was washed five times with PBST and the serum with certain dilution was added. Specifically, for the dilutions, the PBS group was not diluted, the simvastatin group was diluted 16-fold, the TH-Z80 group was diluted 16-fold, the TH-Z93 group was diluted 32-fold, the TH-Z145 group was diluted 16-fold, the imiquimod group was diluted 8-fold, the PEI group was diluted 8-fold, the aluminum adjuvant group was diluted 8-fold, the MF59 group was diluted 16-fold, the incomplete Freund's adjuvant group was diluted 32-fold, and the complete Freund's adjuvant group was diluted 64-fold. Before adding sodium thiocyanate, the amount of anti-OVA IgG type antibody in the diluted serum was the same, 50 μl per well, and incubated for 2 h at room temperature. After washing the ELISA plate with PBST for five times, 10 mM, 9.5 mM, 9 mM, 8.5 mM, 8 mM, 7.5 mM, 7 mM, 6.5 mM,6 mM, 5.5 mM, 5 mM, 4.5 mM, 4 mM, 3.5 mM, 3 mM, 2.5 mM, 2 mM, 1.5 mM, and 0.5 mM sodium thiocyanate were added to each well at 50 μl per well, and incubated for 30 min at room temperature. After washing the ELISA plate for five times with PBST, HRP-labeled goat-anti-mouse antibody was added to each well at 50 μl per well and incubated for 45 min at room temperature. The ELISA plate was washed for five times with PBST, and a color developing solution of sodium citrate OPD was added. After 10 min of color development in the dark, sulfuric acid was added to terminate the reaction. According to the readings of ELIASA, the Prism software was used to calculate the IC50 of sodium thiocyanate. The higher the IC50 value, the stronger the antibody affinity produced by the immunization.
In an in vitro test, the affinity of the antibody was determined by disrupting the binding of the antigen to the antibody by NaSCN. The procedure was as follows: a 96-well ELISA plate was coated with 2 μg/ml OVA, and blocked with 2% BSA. […] Absorbance values at OD 490 nm were read. The IC50 values of NaSCN inhibition were calculated. […]

[5] = Example 15 table, read-out: HsFPPS (IC50/μM)
[6] = TH-Z80 series, DMAPP and IPP substrates, pH 7.4, read-out: IC50 for inhibition of FPPS

Sequence of humanized farnesyl pyrophosphate synthase (HsFPPS) (P14324 whole entry, looked up): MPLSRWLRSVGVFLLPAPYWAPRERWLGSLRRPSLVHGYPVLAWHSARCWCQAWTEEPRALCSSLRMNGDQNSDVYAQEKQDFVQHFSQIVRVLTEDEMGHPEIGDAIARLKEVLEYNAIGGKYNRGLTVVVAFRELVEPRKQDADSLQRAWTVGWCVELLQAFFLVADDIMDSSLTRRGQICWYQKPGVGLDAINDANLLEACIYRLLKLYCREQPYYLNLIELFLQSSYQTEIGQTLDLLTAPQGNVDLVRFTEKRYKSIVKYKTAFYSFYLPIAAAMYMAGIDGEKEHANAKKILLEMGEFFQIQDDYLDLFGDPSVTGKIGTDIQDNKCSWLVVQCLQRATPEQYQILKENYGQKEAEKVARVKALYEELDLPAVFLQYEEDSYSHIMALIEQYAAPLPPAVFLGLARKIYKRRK

In the case of CCCCCCOc1ccc2c(c1)ncn2CC(O)(P(=O)(O)O)P(=O)(O)O [TH-Z80], the IC50 [1, 5] is reported as 0.11 µM, the IC50 [1, 6] is reported as 0.11 µM and the IC50 [2] is reported as 1.76 µM. For the same compound, the “IgG antibody titer after boost vs PBS control” value [3] was “significantly high titers”, the “antibody affinity vs PBS control” value [4] was “significantly high titers and antibody affinities” and the “antibody affinity compared to PBS” value ([4]; NaSCN IC50, 7 days after boosting) was “significantly increased the affinity”.

CCCCCCCCOc1ccc2c(c1)ncn2CC(O)(P(=O)(O)O)P(=O)(O)O [TH-Z81] showed an IC50 [1, 5] of 0.48 µM, an IC50 [1, 6] of 0.48 µM and an IC50 [2] of 1.95 µM.

With CCCCCCOc1ccnc(NC(P(=O)(O)O)P(=O)(O)O)c1 [TH-Z93, (((4-(hexyloxy)pyridin-2-yl)amino)methylene)bisphosphonic acid] the IC50 ([1]; o-aminopyridine bisphosphonic acid compounds, read-out: IC50 (inhibition of FPPS)) was 0.1 µM, the “IgG antibody titer after boost vs PBS control” value [3] was “significantly high titers” and the “antibody affinity vs PBS control” value [4] was “significantly high titers and antibody affinities”.

CCCCCCCOc1ccc2c(c1)ncn2CC(O)(P(=O)(O)O)P(=O)(O)O [TH-Z152] gave an IC50 [1, 5] of 0.14 µM, an IC50 [1, 6] of 0.14 µM and an IC50 [2] of 1.21 µM.

In the case of CCCCCCCCCOc1ccc2c(c1)ncn2CC(O)(P(=O)(O)O)P(=O)(O)O [TH-Z153], the IC50 [1, 5] is reported as 4.9 µM, the IC50 [1, 6] is reported as 4.9 µM and the IC50 [2] is reported as 1.28 µM.

CCC(C)(C)C(=O)O[C@H]1C[C@@H](C)C=C2C=C[C@H](C)[C@H](CC[C@@H]3C[C@@H](O)CC(=O)O3)[C@H]21 [simvastatin, reference compound] was tested, and the “IgG antibody titer after boost vs PBS control” value [3] was “significantly high titers” and the “antibody affinity vs PBS control” value [4] was “significantly high titers and antibody affinities”.

For “(2-(3-(octyloxy)phenyl)ethane-1,1-diyl)bisphosphonic acid [TH-Z145]”, the “IgG antibody titer after boost vs PBS control” value [3] was “significantly high titers” and the “antibody affinity vs PBS control” value [4] was “significantly high titers and antibody affinities”.
